Measured values published in ChEMBL document CHEMBL1201862, “PubChem BioAssay data set” (2004).
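Cultured in 96-well plates, cells were exposed to test compound for 48 hours across five concentrations. Here, GI50 denotes the concentration required for 50% inhibition of growth.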 Activity calls are given as the source filed them. Cut-off read from the data, not from the text of the source: active = GI50 up to about 1.1 µM and inactive = higher.

Key:
Assay in all cases: DTP human tumour cell line panel, 48 h
786-0 = system: 786-0
A498 = system: A498
A549 = system: A549
ACHN = system: ACHN
BT-549 = system: BT-549
CAKI-1 = system: CAKI-1
CCRF-CEM = system: CCRF-CEM
COLO 205 = system: COLO 205
DU-145 = system: DU-145
EKVX = system: EKVX
HCC 2998 = system: HCC 2998
HCT-116 = system: HCT-116
HCT-15 = system: HCT-15
HL-60 = system: HL-60
HOP-62 = system: HOP-62
HT-29 = system: HT-29
Hs-578T = system: Hs-578T
IGROV-1 = system: IGROV-1
K562 = system: K562
KM12 = system: KM12
LOX IMVI = system: LOX IMVI
M14 = system: M14
MCF7 = system: MCF7
MDA-MB-231 = system: MDA-MB-231
MDA-MB-435 = system: MDA-MB-435
MDA-N = system: MDA-N
MOLT-4 = system: MOLT-4
NCI-H226 = system: NCI-H226
NCI-H23 = system: NCI-H23
NCI-H460 = system: NCI-H460
NCI-H522 = system: NCI-H522
NCI/ADR-RES = system: NCI/ADR-RES
OVCAR-3 = system: OVCAR-3
OVCAR-4 = system: OVCAR-4
OVCAR-5 = system: OVCAR-5
OVCAR-8 = system: OVCAR-8
PC-3 = system: PC-3
RPMI-8226 = system: RPMI-8226
RXF 393 = system: RXF 393
SF-268 = system: SF-268
SF-295 = system: SF-295
SF-539 = system: SF-539
SK-MEL-28 = system: SK-MEL-28
SK-MEL-2 = system: SK-MEL-2
SK-MEL-5 = system: SK-MEL-5
SK-OV-3 = system: SK-OV-3
SN12C = system: SN12C
SNB-19 = system: SNB-19
SNB-75 = system: SNB-75
SR = system: SR
SW-620 = system: SW-620
T47D = system: T47D
TK-10 = system: TK-10
U-251 = system: U-251
UACC-257 = system: UACC-257
UACC-62 = system: UACC-62
UO-31 = system: UO-31
Malme-3M = system: Malme-3M

## O=C1Nc2ccccc2/C1=N/Nc1c(F)c(F)c(F)c(F)c1F
786-0
  GI50: 22 µM (inactive)
A498
  GI50: 66.8 µM (inactive)
A549
  GI50: > 100 µM (inactive)
ACHN
  GI50: 18 µM (inactive)
BT-549
  GI50: > 100 µM (inactive)
CAKI-1
  GI50: 30.8 µM (inactive)
CCRF-CEM
  GI50: 4 µM (inactive)
COLO 205
  GI50: 13.9 µM (inactive)
DU-145
  GI50: 67 µM (inactive)
EKVX
  GI50: 35 µM (inactive)
HCC 2998
  GI50: > 100 µM (inactive)
HCT-116
  GI50: 47.8 µM (inactive)
HCT-15
  GI50: 29.9 µM
HL-60
  GI50: 2.77 µM (inactive)
HOP-62
  GI50: > 100 µM (inactive)
HT-29
  GI50: 42.8 µM (inactive)
Hs-578T
  GI50: 86.7 µM (inactive)
IGROV-1
  GI50: 20.5 µM (inactive)
K562
  GI50: 8.63 µM (inactive)
KM12
  GI50: 16.1 µM (inactive)
LOX IMVI
  GI50: 31.2 µM (inactive)
M14
  GI50: > 100 µM (inactive)
MCF7
  GI50: 36.6 µM (inactive)
MDA-MB-231
  GI50: > 100 µM (inactive)
MDA-MB-435
  GI50: > 100 µM (inactive)
MDA-N
  GI50: 32.2 µM (inactive)
MOLT-4
  GI50: 12 µM (inactive)
NCI-H226
  GI50: 53 µM (inactive)
NCI-H23
  GI50: 87.7 µM (inactive)
NCI-H460
  GI50: 93.3 µM (inactive)
NCI-H522
  GI50: 14.4 µM (inactive)
NCI/ADR-RES
  GI50: 70.1 µM (inactive)
OVCAR-3
  GI50: > 100 µM (inactive)
OVCAR-4
  GI50: 82 µM (inactive)
OVCAR-5
  GI50: > 100 µM (inactive)
OVCAR-8
  GI50: 41.9 µM (inactive)
PC-3
  GI50: > 100 µM (inactive)
RPMI-8226
  GI50: 3.83 µM (inactive)
RXF 393
  GI50: 53.8 µM (inactive)
SF-268
  GI50: 49.5 µM (inactive)
SF-295
  GI50: > 100 µM (inactive)
SF-539
  GI50: 48.4 µM (inactive)
SK-MEL-28
  GI50: > 100 µM (inactive)
SK-MEL-2
  GI50: > 100 µM (inactive)
SK-MEL-5
  GI50: 58.5 µM (inactive)
SK-OV-3
  GI50: > 100 µM (inactive)
SN12C
  GI50: 36.5 µM (inactive)
SNB-19
  GI50: > 100 µM (inactive)
SNB-75
  GI50: 91.4 µM (inactive)
SR
  GI50: 3.48 µM (inactive)
SW-620
  GI50: 43.9 µM (inactive)
T47D
  GI50: 22 µM (inactive)
TK-10
  GI50: 22 µM (inactive)
U-251
  GI50: > 100 µM (inactive)
UACC-257
  GI50: 27.2 µM (inactive)
UACC-62
  GI50: > 100 µM (inactive)
UO-31
  GI50: 17.1 µM (inactive)

## COC(=O)c1cc2c(cc1CC1Cc3cc4c(cc3C1=O)CCC4)CCC2 (centres undefined)
786-0
  GI50: 83.8 µM (inactive)
A498
  GI50: 56 µM (inactive)
A549
  GI50: 40.3 µM (inactive)
ACHN
  GI50: > 100 µM (inactive)
BT-549
  GI50: 40.1 µM (inactive)
CAKI-1
  GI50: > 100 µM (inactive)
CCRF-CEM
  GI50: 21.5 µM (inactive)
COLO 205
  GI50: 33.3 µM (inactive)
DU-145
  GI50: > 100 µM (inactive)
EKVX
  GI50: 67.5 µM (inactive)
HCC 2998
  GI50: 43.7 µM (inactive)
HCT-116
  GI50: 33.4 µM (inactive)
HCT-15
  GI50: 36.3 µM
HL-60
  GI50: > 100 µM (inactive)
HOP-62
  GI50: > 100 µM (inactive)
HT-29
  GI50: 31.7 µM (inactive)
Hs-578T
  GI50: 15 µM (inactive)
IGROV-1
  GI50: 97.5 µM (inactive)
K562
  GI50: 20.2 µM (inactive)
KM12
  GI50: 32.4 µM (inactive)
LOX IMVI
  GI50: 41.4 µM (inactive)
M14
  GI50: 66.8 µM (inactive)
MCF7
  GI50: 34 µM (inactive)
MDA-MB-231
  GI50: 53.8 µM (inactive)
MDA-MB-435
  GI50: 24.7 µM (inactive)
MDA-N
  GI50: 18.2 µM (inactive)
MOLT-4
  GI50: 13.5 µM (inactive)
Malme-3M
  GI50: 53 µM (inactive)
NCI-H226
  GI50: 56.6 µM (inactive)
NCI-H23
  GI50: 41.6 µM (inactive)
NCI-H460
  GI50: 40 µM (inactive)
NCI-H522
  GI50: 34.1 µM (inactive)
NCI/ADR-RES
  GI50: 38.1 µM (inactive)
OVCAR-3
  GI50: 57.4 µM (inactive)
OVCAR-4
  GI50: 50.4 µM (inactive)
OVCAR-5
  GI50: > 100 µM (inactive)
OVCAR-8
  GI50: 74 µM (inactive)
PC-3
  GI50: 10.7 µM (inactive)
RPMI-8226
  GI50: 25 µM (inactive)
SF-268
  GI50: > 100 µM (inactive)
SF-295
  GI50: 30.7 µM (inactive)
SF-539
  GI50: 58.9 µM (inactive)
SK-MEL-28
  GI50: 76 µM (inactive)
SK-MEL-2
  GI50: 36.4 µM (inactive)
SK-MEL-5
  GI50: 17.6 µM (inactive)
SK-OV-3
  GI50: 70.3 µM (inactive)
SN12C
  GI50: 57.5 µM (inactive)
SNB-19
  GI50: > 100 µM (inactive)
SNB-75
  GI50: 54.1 µM (inactive)
SR
  GI50: 45.4 µM (inactive)
SW-620
  GI50: 29.4 µM (inactive)
T47D
  GI50: 24.9 µM (inactive)
TK-10
  GI50: 73.1 µM (inactive)
U-251
  GI50: 46 µM (inactive)
UACC-257
  GI50: 39.1 µM (inactive)
UACC-62
  GI50: 47.2 µM (inactive)
UO-31
  GI50: > 100 µM (inactive)
